Laboratory results reported in paper PMC12833730, “Discovery of a First‐in‐Class Covalent Allosteric SHP1 Inhibitor with Immunotherapeutic Activity” (Angewandte Chemie (International Ed. in English), 2025).
Entries after “also recorded” stand apart in the source; their conditions may differ. Where two headings read alike, the source gives them in different places.

Key:
[1] = molecular target: T1, SHP1 (Homo sapiens, UniProt P29350); assay: Vanadate protection jump-dilution experiment; format: biochemical
T1 construct: SHP1, residues 245-543; made in house; host or cells: E. coli BL21(DE3)
T1 sequence (P29350 245-543): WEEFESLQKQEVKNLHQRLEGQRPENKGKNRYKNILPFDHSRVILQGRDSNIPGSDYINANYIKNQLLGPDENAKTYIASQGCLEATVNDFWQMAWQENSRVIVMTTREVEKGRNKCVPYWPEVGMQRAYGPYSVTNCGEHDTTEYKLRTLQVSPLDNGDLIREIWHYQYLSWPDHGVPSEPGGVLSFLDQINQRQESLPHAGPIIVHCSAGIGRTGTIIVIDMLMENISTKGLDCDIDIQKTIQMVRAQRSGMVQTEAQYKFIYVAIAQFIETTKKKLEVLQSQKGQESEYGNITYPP
Method: To further understand the mode of M029 action and ascertain whether M029 binds the SHP1 active site or a yet undefined novel site in SHP1, we performed a vanadate (VO4 ^3−) protection experiment. Vanadate is a reversible and competitive PTP inhibitor,^[ [76], [77] ^] and thus excessive vanadate would be expected to fully occupy the PTP active site and prevent covalent modifications of residues within the active site pocket. In this assay, SHP1 was co‐incubated with 30 µM M029 and 500 µM sodium orthovanadate or vehicle control for 30 min. The SHP1‐inhibitor complex was then rapidly diluted 100‐fold into a buffered solution containing 10 mM pNPP, and immediately, the absorbance at 405 nm was monitored over time to determine the remaining phosphatase activity.

[2] = system: SHP1 KO Jurkat T cells; assay: TCR-LCK signaling in SHP1 KO cells; format: cell-based
Method: Supernatants from lysed cells were reduced, treated with iodoacetamide to cap thiol residues, and digested by trypsin for bottom‐up proteomics analysis. […] LCK is the direct substrate of SHP1 and ERK1/2, and PLCγ is the downstream effector protein of LCK‐mediated TCR signaling. […] Statistical analyses were performed with Graphpad Prism software 10.4.2 through the one‐way ANOVA test using Turkey post‐hoc comparison. ****p < 0.0001 was considered significant.
To further confirm M029 cellular target engagement, we investigated the effect of M029 on T cell function. SHP1 plays a negative role in T cells, and deletion of SHP1 in T cells lowers the activation threshold and enhances antitumor immunity.^[ [30], [31], [32], [33] ^] Mechanistically, SHP1 attenuates T cell receptor (TCR) signaling via dephosphorylation of the lymphocyte‐specific protein tyrosine kinase LCK.^[ [31], [84], [85], [86] ^] T cell activation leads to increased expression and secretion of interleukin 2 (IL‐2)^[ [87] ^] while the removal of SHP1 in T cells enhances IL‐2 production, cell proliferation, and cytolysis capacity.^[ [30], [32] ^] Accordingly, we sought to assess the impact of targeting SHP1 with M029 on TCR‐LCK signaling and T cell activation. […] M029 also dose‐dependently promoted IL‐2 production (Figure 4c). […]

[3] = Pharmacokinetics in mice; format: in vivo, C57BL/6 mice; set-up: AUC: unit not given here
Method: Given M029's superb potency, selectivity, and target engagement, we considered that these desirable attributes make it a powerful chemical probe for interrogating the roles of SHP1 in biological processes and a promising lead for further development into an SHP1‐targeted therapy. […] To that end, we determined the pharmacokinetic (PK) properties of M029 in mice by administrating the compound via intraperitoneal (IP), intravenous (IV), and oral (PO) routes at a concentration of 25 mg/kg (Figure S4). […] Importantly, M029 is orally bioavailable. […] Moreover, even with the 25 mg/kg oral gavage, the plasma concentration of M029 was maintained several‐fold higher than its biochemical IC50 and two‐fold above its cellular EC50 for Jurkat T cell activation for at least 1 h duration (Figure S4). These PK properties ensure that adequate M029 compound exposure can be achieved to assess the effect of SHP1 inhibition in vivo.
Figure S4. Pharmacokinetic parameters of M029. Curves of (A) PO, (B) IP, (C) IV dosage of M029 at 25 mg/kg in WT C57BL/6 mice. Results were analyzed using GraphPad Prism 10.4.2. The figure is plotted as average ± standard error of the mean (SEM).
All the in vivo studies were performed under an animal protocol (1511001324) approved by the Institutional Animal Care & Use Committee of Purdue University, in accordance with the recommendations in the Guide for the Care and Use of Laboratory Animals of the National Institutes of Health. For PK study, C57BL6 female mice (25-30g body weight) were injected intraperitoneally, orally, or intravenously with 25 mg/kg M029 dissolved in 0.4 ml saline. Blood samples were collected through the tail vein at the indicated time points after injection. Isoflurane was used as an anesthetic. All blood samples were centrifuged at 1,500 g for 5 minutes, and plasma was separated and stored at –80°C until analysis by a validated method based on reversed-phase liquid chromatography coupled to mass-spectrometric detection (LC/MS) using a previously published procedure.^169 For the MC38 syngeneic tumor study, 12-week-old C57BL6 female mice were injected subcutaneously with […] MC38 cells in the right and left flanks for tumor growth. When tumors reached an average volume of 100 mm^3 mice were tumor size-matched and randomly assigned to different experimental groups for experiments. Four mice with eight tumors were used in each treatment group. Mice were injected orally with saline or 25 or 100 mg/kg M029 daily. Tumor sizes and animal weights were measured twice per week. Tumor volume (mm^3) = (length X width^2)/2. At the end of the experiments, mice were euthanized, and tumors were collected for analysis. Among eight tumors collected from each group, four homogenous samples and […] were prepared for Western blots and histology analysis.

N#Cc1ccsc1NS(=O)(=O)c1ccc(NC(=O)CCl)cc1 [M029, 2-Chloro-N-(4-(N-(3-cyanothiophen-2-yl)sulfamoyl)phenyl)acetamide]
SHP1 protection from inactivation by vanadate ([1]; 30 µM M029 + 500 µM sodium orthovanadate, 30 min, 100-fold dilution): did not show a significant difference; also recorded: not protected from M029 inactivation | residual phosphatase activity after 100-fold jump dilution, compound alone ([1]; 30 µM M029, 30 min): Little residual phosphatase activity | LCK, PLCγ, and ERK1/2 phosphorylation in SHP1-deleted cells [2]: abolished; also recorded: unable to alter | duration plasma concentration above biochemical IC50 and two-fold above cellular EC50 ([3]; 25 mg/kg oral gavage): at least 1 h | AUC ([3]; female, C57BL/6, mouse, plasma, 25 mg/kg oral, read-out: AUC, oral): 1410 | Cmax ([3]; female, C57BL/6, mouse, plasma, 25 mg/kg oral, read-out: Cmax, oral): 29.8 ± 7.1 µM | half-life ([3]; female, C57BL/6, mouse, plasma, 25 mg/kg oral, read-out: t1/2, oral): 38.5 ± 7.6 min | AUC ([3]; female, C57BL/6, mouse, plasma, ip, 25 mg/kg intraperitoneal, read-out: area under the curve (AUC), IP): 5090 | half-life ([3]; female, C57BL/6, mouse, plasma, ip, 25 mg/kg intraperitoneal, read-out: half-life (t1/2), IP): 36.3 ± 5.7 min | Cmax ([3]; female, C57BL/6, mouse, plasma, ip, 25 mg/kg intraperitoneal, read-out: peak plasma concentration (Cmax), IP): 122 ± 28.2 µM | bioavailability ([3]; female, C57BL/6, mouse, plasma, po, 25 mg/kg, read-out: oral bioavailability (%F)): 18%
